Laboratory results from patent publication US11213033B2, “Method for reusing leaves from arborescent woody plants, for the phytopharmaceutical industry” (CENTRE NATIONAL DE LA RECHERCHE SCIENTIFIQUE—CNRS, priority 2014, dated 2022).

Key:
[1] = Sulcotrione photoprotection test (Suntest irradiation, HPLC); format: physicochemical
Description: The pesticide used is sulcotrione. It was used in its Mikado commercial formulation. Sulcotrione degrades when irradiated by sunlight. The speed of the photodegradation depends on the environment of the molecule. To be representative of actual usage conditions of the pesticide, the rate of sulcotrione photodegradation is measured with the latter being dry, deposited in crystallizing dishes where the bottom is covered by a film of paraffin wax simulating the thin layer of epicuticular wax covering the surface of plants.
The formulated sulcotrione is deposited alone or in the presence of the compositions, 1 ml per crystallizing dish. The concentration of sulcotrione is fixed at 8 mg/l (100 g/ha) and that of the extracts is adjusted so that the absorbance of the compositions at 300 nm is equal to 4 for a 1 mm path length. The pH of the two compositions is normalized to 4.5 by the addition of sodium hydroxide. The crystallizing dishes are then inserted into a Suntest irradiator delivering a radiation similar in photon distribution and intensity to sunlight when the sun is at zenith in temperate regions, then removed after 3 h and 6 h of irradiation. The crystallizing dishes are rinsed with 2 ml ultrapure water and these solutions are analyzed by HPLC to determine their sulcotrione content.

[2] = test system: Phytophthora parasitica var. nicotianae (Ppn) isolate 329; test: Curative treatment of tobacco leaf discs against a pathogen: surface area of region of infection; format: in vivo; settings: 50 μl composition (1% extract), 100 μl zoospore suspension, three days after the infiltrations
Description: Identical compositions are used, as well as leaves originating from the same tobacco plants as in Example 2. Two discs ([…]) are cut from a single leaf and then placed in a Petri dish containing a layer of 2% agarose gel.
The pathogen selected for the study is Phytophthora parasitica var. nicotianae (Ppn) isolate 329. The Ppn is grown on Malt Agar at 24° C. For the production of zoospores, the Ppn mycelium is grown for a week in V8 liquid medium at 24° C. under continuous light conditions, macerated, and then incubated for four days in water containing 2% agar. The zoospores are released by means of thermal shock consisting of two incubations, a first at 4° C. for 20 min, a second at 37° C. for 30 min after addition of 10 ml water. A zoospore suspension in water (1 zoospore per microliter) is prepared before being inoculated.
The compositions containing the extracts (50 μl) are infiltrated and the zoospore suspensions (100 μl) are inoculated into two separate regions, 1 cm apart, of the tobacco leaf parenchyma. Assays in which the compositions are replaced with salicylic acid (positive control) or ultrapure water (negative control) are performed. Three days after the infiltrations, the surface area of the region of infection is measured. The measurements are made using the Optima and Photoshop software for Windows.

Structure (SMILES)	sulcotrione disappearance after 3 hours of irradiation ([1]; Suntest, 3 h) [%]	sulcotrione disappearance (loss) after 6 hours of irradiation ([1]; Suntest, 6 h)	Sulcotrione content after 3 h irradiation ([1]; sulcotrione 8 mg/l, dry deposit on paraffin wax film, Suntest, 3 h)	Sulcotrione content after 6 h irradiation ([1]; sulcotrione 8 mg/l, dry deposit on paraffin wax film, Suntest, 6 h)	Initial sulcotrione content ([1]; sulcotrione 8 mg/l, dry deposit on paraffin wax film, before irradiation)	Surface area of region of infection [2] [cm^2]
CS(=O)(=O)c1ccc(C(=O)C2C(=O)CCCC2=O)c(Cl)c1 [Sulcotrione alone, sulcotrione]	65	about 75%	135 000 U.A.	91 000 U.A.	390 000 U.A.	–
O=C(O)c1ccccc1O [Salicylic acid, salicylic acid]	–	–	–	–	–	10.9 ± 2.8
